Assay results as given in ChEMBL document CHEMBL5608199, “Quaternized antimicrobial peptide mimics based on harmane as potent anti-MRSA agents by multi-target mechanism covering cell wall, cell membrane and intracellular targets” (Eur J Med Chem, 2024).
≈ marks a conversion by molar mass, not a printed value. Calls of active or inactive are those of the source. No cut-off for these calls is given here.

Key:
Escherichia coli = test: Antibacterial activity against Escherichia coli ATCC 8739 incubated for 18 hrs by two fold serial broth dilution method; type: functional
Staphylococcus aureus [1] = test: Antibacterial activity against methicillin-resistant Staphylococcus aureus ATCC 43300 incubated for 18 hrs by two fold serial broth dilution method; type: functional
Staphylococcus aureus [2] = test: Antibacterial activity against methicillin-resistant Staphylococcus aureus ATCC 33591 incubated for 18 hrs by two fold serial broth dilution method; type: functional
Staphylococcus aureus [3] = test: Antibacterial activity against Staphylococcus aureus CMCC 26003 incubated for 18 hrs by two fold serial broth dilution method; type: functional
Staphylococcus aureus [4] = test: Antibacterial activity against methicillin-resistant Staphylococcus aureus CGMCC 1.12409 incubated for 18 hrs by two fold serial broth dilution method; type: functional
Staphylococcus aureus [5] = test: Antibacterial activity against Staphylococcus aureus ATCC 29213 incubated for 18 hrs by two fold serial broth dilution method; type: functional
Staphylococcus aureus [6] = test: Drug resistance, ratio of MIC for methicillin-resistant Staphylococcus aureus ATCC 33591 after 9 passages to MIC for methicillin-resistant Staphylococcus aureus ATCC 33591 during first exposure; type: functional
Staphylococcus aureus [7] = test: Drug resistance, ratio of MIC for methicillin-resistant Staphylococcus aureus ATCC 33591 after 10 passages to MIC for methicillin-resistant Staphylococcus aureus ATCC 33591 during first exposure; type: functional
Staphylococcus aureus [8] = test: Drug resistance, ratio of MIC for methicillin-resistant Staphylococcus aureus ATCC 33591 after 12 passages to MIC for methicillin-resistant Staphylococcus aureus ATCC 33591 during first exposure; type: functional
Staphylococcus aureus [9] = test: Antibacterial activity against methicillin-resistant Staphylococcus aureus ATCC 33591 infected in cyclophosphamide treated female KM mouse skin infection model assessed as reduction in inflammatory cell infiltration at 3.3 mg/kg administered for 4 days and measured on day 5 by H and E staining based analysis; type: functional, organism-based; details: time 5.0 day
Staphylococcus aureus [10] = test: Antibacterial activity against methicillin-resistant Staphylococcus aureus ATCC 33591 infected in cyclophosphamide treated female KM mouse skin infection model assessed as reduction in number of bacterial clones in skin at 3.3 mg/kg administered for 4 days and measured on day 5; type: functional, organism-based; details: time 5.0 day

| SMILES | MIC (Escherichia coli) [µg/mL] | MIC (Staphylococcus aureus [1]) [µg/mL] | MIC (Staphylococcus aureus [2]) [µg/mL] | MIC (Staphylococcus aureus [3]) [µg/mL] | MIC (Staphylococcus aureus [4]) [µg/mL] | MIC (Staphylococcus aureus [5]) [µg/mL] | Ratio (Staphylococcus aureus [6]) | Ratio (Staphylococcus aureus [7]) | Ratio (Staphylococcus aureus [8]) | Activity (Staphylococcus aureus [9]) | Activity (Staphylococcus aureus [10]) |
| --- | --- | --- | --- | --- | --- | --- | --- | --- | --- | --- | --- |
| [2H]C([2H])([2H])[n+]1ccc2c3ccccc3n(CC[N+](C)(C)C([2H])([2H])[2H])c2c1C.[I-].[I-] | > 128 | > 128 | > 128 | > 128 | > 128 | > 128 | – | – | – | – | – |
| Cc1nccc2c3ccccc3n(CCN(C)C)c12 | 64 (≈ 253 µM) | > 128 | > 128 | > 128 | > 128 | > 128 | – | – | – | – | – |
| Cc1nccc2c3ccccc3n(CCCCCCCCn3c4ccccc4c4ccnc(C)c43)c12 | > 128 | > 128 | > 128 | > 128 | > 128 | > 128 | – | – | – | – | – |
| Cc1c2c(cc[n+]1C)c1ccccc1n2CCCCCCCn1c2ccccc2c2cc[n+](C)c(C)c21.[I-].[I-] | 16 | 2 | 0.5 | 0.5 | 1 | 8 | – | – | – | – | – |
| Cc1c2c(cc[n+]1C)c1ccccc1n2CC[N+](C)(C)C.[I-].[I-] | > 128 | > 128 | > 128 | > 128 | > 128 | > 128 | – | – | – | – | – |
| Cc1nccc2c3ccccc3n(CCCCCn3c4ccccc4c4ccnc(C)c43)c12 | > 128 | > 128 | > 128 | > 128 | > 128 | > 128 | – | – | – | – | – |
| CCCC[n+]1ccc2c3ccccc3n(CCN(CC)CC)c2c1C.[Br-] | > 128 | 128 | 64 | 64 | 64 | > 128 | – | – | – | – | – |
| CCN(CC)CCn1c2ccccc2c2ccnc(C)c21 | 128 (≈ 455 µM) | 128 (≈ 455 µM) | 128 (≈ 455 µM) | 128 (≈ 455 µM) | > 128 | 128 (≈ 455 µM) | – | – | – | – | – |
| Cc1nccc2c3ccccc3n(CCCCCCCn3c4ccccc4c4ccnc(C)c43)c12 | > 128 | > 128 | > 128 | > 128 | > 128 | > 128 | – | – | – | – | – |
| CC[n+]1ccc2c3ccccc3n(CC[N+](CC)(CC)CC)c2c1C.[Br-].[Br-] | > 128 | > 128 | > 128 | > 128 | > 128 | > 128 | – | – | – | – | – |
| CCCCC[n+]1ccc2c3ccccc3n(CC[N+](C)(C)CCCCC)c2c1C.[Br-].[Br-] | > 128 | > 128 | > 128 | > 128 | > 128 | > 128 | – | – | – | – | – |
| CCn1cc(C(=O)O)c(=O)c2cc(F)c(N3CCNCC3)cc21 [NORFLOXACIN] | – | – | – | – | – | – | 16 | >16 | 2 | – | – |
| Cc1nccc2c3ccccc3n(CCCCn3c4ccccc4c4ccnc(C)c43)c12 | > 128 | > 128 | > 128 | > 128 | > 128 | > 128 | – | – | – | – | – |
| CCCC[n+]1ccc2c3ccccc3n(CCN(C)C)c2c1C.[Br-] | > 128 | > 128 | 128 | 128 | > 128 | > 128 | – | – | – | – | – |
| Cc1c2[nH]c3ccccc3c2cc[n+]1C.[I-] | > 128 | > 128 | > 128 | > 128 | > 128 | > 128 | – | – | – | – | – |
| Cc1nccc2c3ccccc3n(CCCCCCn3c4ccccc4c4ccnc(C)c43)c12 | > 128 | > 128 | > 128 | > 128 | > 128 | > 128 | – | – | – | – | – |
| CN[C@H](CC(C)C)C(=O)N[C@H]1C(=O)N[C@@H](CC(N)=O)C(=O)N[C@H]2C(=O)N[C@H]3C(=O)N[C@H](C(=O)N[C@H](C(=O)O)c4cc(O)cc(O)c4-c4cc3ccc4O)[C@H](O)c3ccc(c(Cl)c3)Oc3cc2cc(c3O[C@@H]2O[C@H](CO)[C@@H](O)[C@H](O)[C@H]2O[C@H]2C[C@](C)(N)[C@H](O)[C@H](C)O2)Oc2ccc(cc2Cl)[C@H]1O [VANCOMYCIN] | > 128 | – | – | 0.25 (≈ 0.173 µM) | – | – | – | – | – | Active | Active |
| [2H]C([2H])([2H])[n+]1ccc2c([nH]c3ccccc32)c1C.[I-] | > 128 | > 128 | > 128 | > 128 | > 128 | > 128 | – | – | – | – | – |
| CCCCC[n+]1ccc2c3ccccc3n(CCN(CC)CC)c2c1C.[Br-] | 128 | 32 | 32 | 16 | 64 | 64 | – | – | – | – | – |
| CCCC[n+]1ccc2c3ccccc3n(CC[N+](C)(C)CCCC)c2c1C.[Br-].[Br-] | > 128 | > 128 | 128 | 128 | > 128 | > 128 | – | – | – | – | – |
| [2H]C([2H])([2H])[n+]1ccc2c3ccccc3n(CC[N+](CC)(CC)C([2H])([2H])[2H])c2c1C.[I-].[I-] | > 128 | > 128 | > 128 | > 128 | > 128 | > 128 | – | – | – | – | – |
| CC[N+](C)(CC)CCn1c2ccccc2c2cc[n+](C)c(C)c21.[I-].[I-] | > 128 | > 128 | > 128 | > 128 | > 128 | > 128 | – | – | – | – | – |
| CCC[n+]1ccc2c3ccccc3n(CC[N+](C)(C)CCC)c2c1C.[Br-].[Br-] | > 128 | > 128 | > 128 | > 128 | > 128 | > 128 | – | – | – | – | – |
| CC[n+]1ccc2c3ccccc3n(CC[N+](C)(C)CC)c2c1C.[Br-].[Br-] | > 128 | > 128 | > 128 | > 128 | > 128 | > 128 | – | – | – | – | – |
| CCC[n+]1ccc2c3ccccc3n(CCN(CC)CC)c2c1C.[Br-] | > 128 | > 128 | 128 | 64 | > 128 | > 128 | – | – | – | – | – |
